Results as given in publication PMC11200585, “Prospects for Prostate Cancer Chemotherapy: Cytotoxic Evaluation and Mechanistic Insights of Quinolinequinones with ADME/PK Profile” (Biomedicines, 2024).

Key:
Type in all cases: cell-based, human
[1] = tested on: TK-10; test: NCI-60 five-dose assay (renal cancer); details: 48 h, SRB; for GI50 / LC50 (concentration killing 50% of starting cells): Homo sapiens
[2] = tested on: OVCAR-4; test: NCI-60 five-dose assay (ovarian cancer); details: 48 h, SRB; for GI50 / LC50 (concentration killing 50% of cells): Homo sapiens
[3] = tested on: HOP-92; test: NCI-60 five-dose assay (non-small cell lung cancer); details: 48 h, SRB; for GI50 / LC50 (50% lethal concentration): Homo sapiens
[4] = tested on: HOP-62; test: as above; details: 48 h, SRB; for GI50 / LC50 (concentration killing 50% of cells): Homo sapiens
[5] = tested on: SF-268; test: NCI-60 five-dose assay (CNS cancer); details: 48 h, SRB; for GI50 / LC50 (concentration killing 50% of cells): Homo sapiens
[6] = tested on: UACC-62; test: NCI-60 one-dose screen (melanoma); details: 10 µM single dose, 48 h
Protocol: (§1) The obtained quinolinequinones were submitted to NCI, Bethesda, USA, and, as per standard protocol of NCI, all compounds were evaluated for their antiproliferative activity at single-dose assay (10 µM concentration in DMSO) on a panel of 60 cancer cell lines derived from leukemia, non-small-cell lung, colon, CNS, melanoma, ovarian, renal, prostate, and breast, as per protocol. Tested compounds were added to the microtiter culture plates followed by incubation for 48 h at 37 °C. Sulforhodamine B (SRB), a protein-binding dye, is used for endpoint determination. The percent of the growth of the treated cells was determined in comparison to the untreated control cells and the results of each tested compound were reported. Data from one-dose experiments pertain to the percentage growth at 10 μM [16, 17, 18].

[7] = tested on: LOX IMVI; test: NCI-60 one-dose screen (melanoma); details: 10 µM single dose, 48 h
Protocol: as §1

[8] = tested on: UACC-257; test: NCI-60 one-dose screen (melanoma); details: 10 µM single dose, 48 h
Protocol: as §1

[9] = tested on: SK-MEL-28; test: NCI-60 one-dose screen (melanoma); details: 10 µM single dose; for GP (growth percentage): 48 h; for inhibition at 10 µM: Homo sapiens
Protocol: as §1

[10] = tested on: SK-MEL-2; test: NCI-60 one-dose screen (melanoma); details: 10 µM single dose, 48 h
Protocol: as §1

[11] = tested on: MALME-3M; test: NCI-60 one-dose screen (melanoma); details: 10 µM single dose, 48 h
Protocol: as §1

[12] = tested on: MDA-MB-435; test: NCI-60 one-dose screen (melanoma); details: 10 µM single dose, 48 h
Protocol: as §1

[13] = tested on: SK-MEL-5; test: NCI-60 one-dose screen (melanoma); details: 10 µM single dose, 48 h
Protocol: as §1

[14] = tested on: CAKI-1; test: NCI-60 five-dose assay (renal cancer); details: 48 h, SRB; for GI50 / LC50 (lethal concentration, 50% net cell kill): Homo sapiens
[15] = tested on: CCRF-CEM; test: NCI-60 five-dose assay (leukemia); details: 48 h, SRB; for GI50 / LC50 (concentration killing 50% of cells): Homo sapiens
[16] = tested on: NCI-H522; test: NCI-60 five-dose assay (non-small cell lung cancer); details: 48 h, SRB; for GI50 / LC50: Homo sapiens
[17] = tested on: M14; test: NCI-60 five-dose assay (melanoma); details: 48 h, SRB; for GI50 / LC50: Homo sapiens
[18] = tested on: RPMI-8226; test: NCI-60 five-dose assay (leukemia); details: 48 h, SRB; for GI50 / CC50: Homo sapiens; for CC50: read-out: LC50 (the source's name)
[19] = tested on: MDA-MB-468; test: NCI-60 five-dose assay (breast cancer); details: 48 h, SRB; for GI50 / LC50: Homo sapiens
[20] = tested on: NCI-H226; test: NCI-60 five-dose assay (non-small cell lung cancer); details: 48 h, SRB; for GI50 / LC50: Homo sapiens
[21] = tested on: OVCAR-8; test: NCI-60 five-dose assay (ovarian cancer); details: 48 h, SRB; for GI50 / CC50: Homo sapiens; for CC50: read-out: LC50 (the source's name)
[22] = tested on: 786-0; test: NCI-60 five-dose assay (renal cancer); details: 48 h, SRB; for GI50 / LC50: Homo sapiens
[23] = tested on: BT-549; test: NCI-60 five-dose assay (breast cancer); details: 48 h, SRB; for GI50 / LC50 (concentration giving 50% net cell kill): Homo sapiens
[24] = tested on: ACHN; test: NCI-60 one-dose screen (renal cancer); details: 10 µM single dose, 48 h
Protocol: as §1

[25] = tested on: TK-10; test: NCI-60 one-dose screen (renal cancer); details: 10 µM single dose, 48 h
Protocol: as §1

[26] = tested on: A498; test: NCI-60 one-dose screen (renal cancer); details: 10 µM single dose, 48 h
Protocol: as §1

[27] = tested on: SN12C; test: NCI-60 one-dose screen (renal cancer); details: 10 µM single dose, 48 h
Protocol: as §1

[28] = tested on: UO-31; test: NCI-60 one-dose screen (renal cancer); details: 10 µM single dose, 48 h
Protocol: as §1

[29] = tested on: 786-0; test: NCI-60 one-dose screen (renal cancer); details: 10 µM single dose, 48 h
Protocol: as §1

[30] = tested on: K-562; test: NCI-60 five-dose assay (leukemia); details: SRB; for GI50 / LC50: Homo sapiens, K562, 48 h
[31] = tested on: MCF7; test: NCI-60 five-dose assay (breast cancer); details: 48 h, SRB
[32] = tested on: OVCAR-4; test: NCI-60 one-dose screen (ovarian cancer); details: 10 µM single dose, 48 h
Protocol: as §1

[33] = tested on: NCI/ADR-RES; test: NCI-60 one-dose screen (ovarian cancer); details: 10 µM single dose; for GP (growth percentage): 48 h
Protocol: as §1

[34] = tested on: OVCAR-5; test: NCI-60 one-dose screen (ovarian cancer); details: 10 µM single dose, 48 h
Protocol: as §1

[35] = tested on: OVCAR-8; test: NCI-60 one-dose screen (ovarian cancer); details: 10 µM single dose; for GP (growth percentage): 48 h; for inhibition at 10 µM: Homo sapiens
Protocol: as §1

[36] = tested on: SK-OV-3; test: NCI-60 one-dose screen (ovarian cancer); details: 10 µM single dose, 48 h
Protocol: as §1

[37] = tested on: IGROV1; test: NCI-60 one-dose screen (ovarian cancer); details: 10 µM single dose, 48 h
Protocol: as §1

[38] = tested on: DU-145; test: NCI-60 five-dose assay (prostate cancer); details: 48 h, SRB; for GI50 / CC50: Homo sapiens; for CC50: read-out: LC50 (the source's name)

**Q.** What does the source list for `COc1ccccc1NC1=C(Cl)C(=O)c2nc(C)ccc2C1=O` [AQQ1]?
**A.** TGI [1]: 3.86 µM; GI50 [1]: 2.34 µM; LC50 (concentration killing 50% of starting cells) [1]: 6.36 µM; TGI [2]: 2.49 µM; GI50 [2]: 1.21 µM; LC50 (concentration killing 50% of cells) [2]: 5.11 µM; TGI [3]: 3.30 µM; GI50 [3]: 1.85 µM; LC50 (50% lethal concentration) [3]: 5.91 µM; TGI [4]: 6.98 µM; GI50 [4]: 2.41 µM; LC50 (concentration killing 50% of cells) [4]: 37.5 µM; TGI [5]: 3.05 µM; GI50 [5]: 1.53 µM; LC50 (concentration killing 50% of cells) [5]: 6.06 µM; GP (growth percentage) [6]: −45.84%; GP (growth percentage) [7]: −72.99%; GP (growth percentage) [8]: −82.67%; GP (growth percentage) [9]: 14.13%; inhibition at 10 µM [9]: 85.9%; GP (growth percentage) [10]: 78.82%; GP (growth percentage) [11]: −55.92%; GP (growth percentage) [12]: −85.96%; GP (growth percentage) [13]: −93.34%; TGI [14]: 2.87 µM; GI50 [14]: 1.5 µM; LC50 (lethal concentration, 50% net cell kill) [14]: 5.47 µM; TGI [15]: 8.21 µM; GI50 [15]: 1.94 µM; LC50 (concentration killing 50% of cells) [15]: > 100 µM; TGI [16]: 3.36 µM; GI50 [16]: 1.81 µM; LC50 [16]: 6.24 µM; TGI [17]: 3.81 µM; GI50 [17]: 1.82 µM; LC50 [17]: 7.96 µM; TGI [18]: 4.61 µM; GI50 [18]: 1.57 µM; CC50 [18]: > 100 µM; TGI [19]: 3.06 µM; GI50 [19]: 1.52 µM; LC50 [19]: 6.16 µM; TGI [20]: 4.52 µM; GI50 [20]: 1.93 µM; LC50 [20]: 14.1 µM; TGI [21]: 3.25 µM; GI50 [21]: 1.61 µM; CC50 [21]: 6.59 µM; TGI [22]: 3.61 µM; GI50 [22]: 1.91 µM; LC50 [22]: 6.82 µM; TGI [23]: 3.27 µM; GI50 [23]: 1.72 µM; LC50 (concentration giving 50% net cell kill) [23]: 6.19 µM; GP (growth percentage) [24]: −99.93%; GP (growth percentage) [25]: 147.78%; GP (growth percentage) [26]: 71.81%; GP (growth percentage) [27]: −49.46%; GP (growth percentage) [28]: −65.68%; GP (growth percentage) [29]: 9.17%; TGI ([30]; 48 h): 2.94 µM; GI50 [30]: 0.29 µM; LC50 [30]: > 100 µM; TGI [31]: 4.49 µM; GI50 ([31]; Homo sapiens): 1.78 µM; LC50 ([31]; Homo sapiens): > 100 µM; GP (growth percentage) [32]: −98.22%; GP (growth percentage) [33]: 7.08%; inhibition at 10 µM ([33]; Homo sapiens): 92.9%; GP (growth percentage) [34]: 78.91%; GP (growth percentage) [35]: 9.87%; inhibition at 10 µM [35]: 90.1%; GP (growth percentage) [36]: 88.34%; GP (growth percentage) [37]: −83.51%; TGI [38]: 3.11 µM; GI50 [38]: 1.72 µM; CC50 [38]: 5.62 µM

**Q.** Which results are given for `CCOc1ccccc1NC1=C(Cl)C(=O)c2nc(C)ccc2C1=O` [AQQ2]?
**A.** TGI [1]: 3.72 µM; GI50 [1]: 2.25 µM; LC50 (concentration killing 50% of starting cells) [1]: 6.18 µM; TGI [2]: 2.22 µM; GI50 [2]: 1 µM; LC50 (concentration killing 50% of cells) [2]: 4.91 µM; TGI [3]: 3.33 µM; GI50 [3]: 1.8 µM; LC50 (50% lethal concentration) [3]: 6.13 µM; TGI [4]: 6.74 µM; GI50 [4]: 2.27 µM; LC50 (concentration killing 50% of cells) [4]: 28.8 µM; TGI [5]: 2.94 µM; GI50 [5]: 1.47 µM; LC50 (concentration killing 50% of cells) [5]: 5.87 µM; GP (growth percentage) [6]: −29.14%; GP (growth percentage) [7]: −82.20%; GP (growth percentage) [8]: −88.33%; GP (growth percentage) [9]: 14.55%; inhibition at 10 µM [9]: 85.5%; GP (growth percentage) [10]: −15.72%; GP (growth percentage) [11]: −71.39%; GP (growth percentage) [12]: −85.72%; GP (growth percentage) [13]: −97.76%; TGI [14]: 2.84 µM; GI50 [14]: 1.45 µM; LC50 (lethal concentration, 50% net cell kill) [14]: 5.57 µM; TGI [15]: >100 µM; GI50 [15]: 1.41 µM; LC50 (concentration killing 50% of cells) [15]: > 100 µM; TGI [16]: 3.28 µM; GI50 [16]: 1.74 µM; LC50 [16]: 6.18 µM; TGI [17]: 2.83 µM; GI50 [17]: 1.46 µM; LC50 [17]: 5.5 µM; TGI [18]: 4.71 µM; GI50 [18]: 1.2 µM; CC50 [18]: > 100 µM; TGI [19]: 2.88 µM; GI50 [19]: 1.45 µM; LC50 [19]: 5.71 µM; TGI [20]: 4.24 µM; GI50 [20]: 1.78 µM; LC50 [20]: 16.2 µM; TGI [21]: 2.92 µM; GI50 [21]: 1.49 µM; CC50 [21]: 5.7 µM; TGI [22]: 3.25 µM; GI50 [22]: 1.8 µM; LC50 [22]: 5.86 µM; TGI [23]: 2.88 µM; GI50 [23]: 1.52 µM; LC50 (concentration giving 50% net cell kill) [23]: 5.46 µM; GP (growth percentage) [24]: −99.15%; GP (growth percentage) [25]: 124.08%; GP (growth percentage) [26]: 78.84%; GP (growth percentage) [27]: −50.97%; GP (growth percentage) [28]: −92.96%; GP (growth percentage) [29]: −88.18%; GI50 [30]: 0.341 µM; LC50 [30]: > 100 µM; TGI [31]: 3.65 µM; GI50 ([31]; Homo sapiens): 1.33 µM; GP (growth percentage) [32]: −91.97%; GP (growth percentage) [33]: −9.58%; GP (growth percentage) [34]: 40.78%; GP (growth percentage) [35]: 0.93%; inhibition at 10 µM [35]: 99.1%; GP (growth percentage) [36]: 85.34%; GP (growth percentage) [37]: −57.52%; TGI [38]: 2.99 µM; GI50 [38]: 1.63 µM; CC50 [38]: 5.49 µM
